This is an account of results in US9884063B2, “Amido-substituted azole compounds” (Bayer Pharma Aktiengesellschaft, priority 2014, dated 2018).

This assay addresses T1, TNKS2 (Homo sapiens, UniProt Q9H2K2).
T1 sequence (Q9H2K2 1-1166): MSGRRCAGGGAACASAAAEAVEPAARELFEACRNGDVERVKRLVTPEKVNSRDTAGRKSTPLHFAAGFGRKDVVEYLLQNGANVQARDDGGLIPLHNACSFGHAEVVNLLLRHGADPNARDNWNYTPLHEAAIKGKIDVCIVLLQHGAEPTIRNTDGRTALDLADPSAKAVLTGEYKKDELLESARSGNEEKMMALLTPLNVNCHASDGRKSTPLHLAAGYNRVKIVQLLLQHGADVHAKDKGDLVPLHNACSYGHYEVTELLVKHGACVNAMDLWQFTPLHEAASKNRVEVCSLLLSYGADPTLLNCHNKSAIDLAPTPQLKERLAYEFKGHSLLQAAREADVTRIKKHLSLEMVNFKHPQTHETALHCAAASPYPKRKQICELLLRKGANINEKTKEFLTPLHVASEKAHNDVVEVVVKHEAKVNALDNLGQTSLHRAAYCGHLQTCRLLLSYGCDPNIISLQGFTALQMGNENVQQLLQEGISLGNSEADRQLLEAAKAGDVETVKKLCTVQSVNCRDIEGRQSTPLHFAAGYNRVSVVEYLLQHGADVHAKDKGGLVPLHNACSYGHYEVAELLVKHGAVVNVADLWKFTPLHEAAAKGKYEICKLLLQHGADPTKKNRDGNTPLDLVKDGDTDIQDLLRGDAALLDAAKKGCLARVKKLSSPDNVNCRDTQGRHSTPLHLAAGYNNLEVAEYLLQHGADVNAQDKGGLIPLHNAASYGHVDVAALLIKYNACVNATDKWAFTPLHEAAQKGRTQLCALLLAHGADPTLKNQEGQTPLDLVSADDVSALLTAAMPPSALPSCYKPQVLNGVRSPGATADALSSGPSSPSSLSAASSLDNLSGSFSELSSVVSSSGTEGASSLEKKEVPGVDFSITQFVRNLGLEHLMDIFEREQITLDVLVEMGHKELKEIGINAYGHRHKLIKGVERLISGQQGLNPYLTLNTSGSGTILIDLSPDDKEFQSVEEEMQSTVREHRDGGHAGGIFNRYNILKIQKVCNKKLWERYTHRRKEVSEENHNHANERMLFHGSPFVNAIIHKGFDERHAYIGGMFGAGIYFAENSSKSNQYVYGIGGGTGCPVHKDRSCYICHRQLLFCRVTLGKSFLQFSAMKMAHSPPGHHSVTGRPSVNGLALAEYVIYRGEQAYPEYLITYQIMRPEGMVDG
The experiment in a line: Modified TNKS2 Assay 3 (BPS kit #80578, biotin-NAD+, 96 well). Type of assay: biochemical. The note with it: human TNKS2, BPS kit #80578, 96 well. On the procedure:
The potency of the compounds against human TNKS2 according to the invention was assessed using a commercially available biotin/streptavidin binding assay kits from BPS Bioscience, San Diego, USA (Catalog #80578 for TNKS2). The incorporation of a biotin-labeled NAD+ during the […] catalyzed ribosylation of a suitable protein substrate was detected using with a streptavidin-HRP coupled chemi-luminescent readout. The intensity of the readout signal is proportional to the incorporated NAD^+. Inhibition of TNKS2 leads to a decreased incorporation of NAD^+ and consequently to a lower readout signal intensity in the corresponding TNKS2 assays. The concentration of a test compound that inhibits the enzyme activity by 50% (corresponds to half of the normed readout signal intensity) is reported as IC50. The assay conducted in a 96 well MTP format according to the manufacturer's protocol and using a BMG Pherastar MTP reader [BMG-Labtech, Offenburg, Germany].
The molecule `CNC(=O)c1nc[nH]c1C(=O)Nc1ccc(NC(=O)c2cc(F)c(F)cc2Cl)cc1` [Example 242, N^5-{4-[(2-chloro-4,5-difluorobenzoyl)amino]phenyl}-N^4-methyl-1H-imidazole-4,5-dicarboxamide] showed an IC50 of 120 nM.

`O=C(Nc1ccc(NC(=O)c2nc[nH]c2C(=O)NCCN2CCCC(F)C2)cc1)c1ccc(F)cc1Cl` (centres unmarked) [Example 226, N^4-{4-[(2-chloro-4-fluorobenzoyl)amino]phenyl}-N^5-[2-(3-fluoropiperidin-1-yl)ethyl]-1H-imidazole-4,5-dicarboxamide] returned an IC50 of 0.9 nM. This IC50 is about 130-fold lower than that of the molecule before.

`CNC(=O)c1nc[nH]c1C(=O)Nc1ccc(NC(=O)c2ccc(F)cc2Cl)cc1` [Example 12, N^5-{4-[(2-chloro-4-fluorobenzoyl)amino]phenyl}-N^4-methyl-1H-imidazole-4,5-dicarboxamide] displayed an IC50 of 60 nM.

As for `COCCNC(=O)c1[nH]cnc1C(=O)Nc1ccc(NC(=O)c2ccc(F)cc2Cl)cc1` [Example 130, N^4-{4-[(2-chloro-4-fluorobenzoyl)amino]phenyl}-N^5-(2-methoxyethyl)-1H-imidazole-4,5-dicarboxamide], 170 nM corresponded to half-maximal inhibition (IC50).

`CNC(=O)c1nc[nH]c1C(=O)Nc1ccc(NC(=O)c2c(F)cc(F)cc2Cl)cc1` [Example 118, N^5-{4-[(2-chloro-4,6-difluorobenzoyl)amino]phenyl}-N^4-methyl-1H-imidazole-4,5-dicarboxamide] came in with a concentration for half-maximal inhibition (IC50) of 230 nM.

In the case of `CNC(=O)c1nc[nH]c1C(=O)Nc1ccc(NC(=O)c2cc(OC)c(OC)cc2Cl)cc1` [Example 240, N^5-{4-[(2-chloro-4,5-dimethoxybenzoyl)amino]phenyl}-N^4-methyl-1H-imidazole-4,5-dicarboxamide], the IC50 was 30 nM.

`O=C(Nc1ccc(NC(=O)c2nc[nH]c2C(=O)NC2CCOC2)cc1)c1ccc(F)cc1Cl` (centres unmarked) [Example 236, N^4-{4-[(2-chloro-4-fluorobenzoyl)amino]phenyl}-N^5-(tetrahydrofuran-3-yl)-1H-imidazole-4,5-dicarboxamide]: the IC50 turned out to be 80 nM.

The molecule `CNC(=O)c1nc[nH]c1C(=O)Nc1ccc(NC(=O)c2ccc(F)cc2Cl)nc1` [Example 16, N^5-{6-[(2-chloro-4-fluorobenzoyl)amino]pyridin-3-yl}-N^4-methyl-1H-imidazole-4,5-dicarboxamide] returned an IC50 of 40 nM. Compared with the last molecule, the IC50 is about 2-fold lower.

In the case of `NC(=O)c1nc[nH]c1C(=O)Nc1ccc(NC(=O)c2ccc(F)cc2Cl)cc1` [Example 121], half-maximal inhibition (IC50) required 110 nM.

`O=C(Nc1ccc(NC(=O)c2[nH]cnc2C(=O)NCC(F)(F)F)cc1)c1ccc(F)cc1Cl` [Example 30, N^4-{4-[(2-chloro-4-fluorobenzoyl)amino]phenyl}-N^5-(2,2,2-trifluoroethyl)-1H-imidazole-4,5-dicarboxamide] displayed an IC50 of 130 nM.

For the molecule `CNC(=O)c1nc[nH]c1C(=O)Nc1ccc(NC(=O)c2ccc(C)cc2Cl)cc1` [Example 244, N^5-{4-[(2-chloro-4-methylbenzoyl)amino]phenyl}-N^4-methyl-1H-imidazole-4,5-dicarboxamide], the IC50 worked out at 30 nM.

`CC1CCN(CCNC(=O)c2nc[nH]c2C(=O)Nc2ccc(NC(=O)c3ccc(F)cc3Cl)cc2)CC1` [Example 126, N^5-{4-[(2-chloro-4-fluorobenzoyl)amino]phenyl}-N^4-[2-(4-methylpiperidin-1-yl)ethyl]-1H-imidazole-4,5-dicarboxamide] displayed an IC50 of 1 nM.

Turning to `O=C(NCCN1CCCCC1)c1nc[nH]c1C(=O)Nc1ccc(NC(=O)c2c(F)cc(F)cc2Cl)cc1` [Example 119, N^5-{4-[(2-chloro-4,6-difluorobenzoyl)amino]phenyl}-N^4-[2-(piperidin-1-yl)ethyl]-1H-imidazole-4,5-dicarboxamide], the IC50 is < 0.5 nM.

In the case of `CC1CCCN(CCNC(=O)c2[nH]cnc2C(=O)Nc2ccc(NC(=O)c3ccc(F)cc3Cl)cc2)C1` (centres unmarked) [Example 208, N^4-{4-[(2-chloro-4-fluorobenzoyl)amino]phenyl}-N^5-[2-(3-methylpiperidin-1-yl)ethyl]-1H-imidazole-4,5-dicarboxamide], the half-inhibitory concentration (IC50) was found to be 3 nM. In other words, the single-digit nanomolar range.

What is called IC50 is the concentration that gives 50% inhibition. Low values mean greater potency in that assay, high ones weaker potency in that assay.
